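Growth conditions: 96-well plates. Treatment: test compound, 48 hours, 5 concentrations. Analysis: linear interpolation between bracketing concentrations; unreached endpoints set to highest concentration. GI50: concentration for 50% inhibition of growth.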 Calls of active or inactive are those of the source. No stated cut-off is given here; in the data, active = GI50 up to about 1.1 µM and inactive = higher. Positions of bridges follow the written chain, without caps; N, C: chain ends. Non-standard residues stand in square brackets, D forms with d. Residues, ends and D or L forms follow the SMILES beside them. *: point of attachment. PhAc = O=C(Cc1ccccc1)*
How the values were obtained:
Test in all cases: DTP human tumour cell line panel, 48 h
[1] = test system: 786-0
[2] = test system: CAKI-1
[3] = test system: DU-145
[4] = test system: HCT-15
[5] = test system: HOP-92
[6] = test system: NCI-H226
[7] = test system: NCI-H522
[8] = test system: OVCAR-4
[9] = test system: OVCAR-8
[10] = test system: PC-3
[11] = test system: SF-295
[12] = test system: SF-539
[13] = test system: SK-MEL-28
[14] = test system: SK-MEL-5
[15] = test system: SK-OV-3
[16] = test system: SR
[17] = test system: UO-31
[18] = test system: HL-60
[19] = test system: LOX IMVI
[20] = test system: RPMI-8226

Measured: GI50

CC(C)C(=O)NCC[C@@H](CNC(=O)OC(C)(C)C)NC(=O)OC(C)(C)C
> 100 µM: [4]
inactive: [1] > 100 µM | [2] > 100 µM | [3] > 100 µM | [5] > 100 µM | [6] > 100 µM | [7] > 100 µM | [8] > 100 µM | [9] > 100 µM | [10] > 100 µM | [11] > 100 µM | [12] > 100 µM | [13] > 100 µM | [14] > 100 µM | [15] > 100 µM | [16] > 100 µM | [17] > 100 µM

Oc1ccc2c(c1)-c1c(c3ccccc3n1CCN1CCOCC1)CC2
inactive: [1] 33.7 µM | [2] 32.6 µM | [3] 46 µM | [18] > 100 µM | [19] 39.7 µM | [6] 24.6 µM | [9] 33.2 µM | [10] 32.2 µM | [20] > 100 µM | [11] 48.3 µM | [12] 46 µM | [14] 40.6 µM | [15] 27.5 µM | [16] > 100 µM | [17] 33.9 µM
39.7 µM: [4]

O=c1[nH]c(N/N=C\C(=N/Nc2nc3ccccc3c(=O)[nH]2)C(O)C(O)C(O)CO)nc2ccccc12 (stereo unspecified)
> 100 µM: [4]
inactive: [1] > 100 µM | [2] > 100 µM | [3] > 100 µM | [18] > 100 µM | [5] > 100 µM | [19] > 100 µM | [6] > 100 µM | [9] > 100 µM | [10] > 100 µM | [20] > 100 µM | [11] > 100 µM | [12] > 100 µM | [13] > 100 µM | [14] > 100 µM | [15] > 100 µM | [16] > 100 µM | [17] > 100 µM

CC1=C(C)Cc2c(O)ccc(O)c2C1
17.5 µM: [4]
inactive: [2] 18.2 µM | [3] 20.1 µM | [18] 5.36 µM | [5] 19.7 µM | [19] 19.9 µM | [6] 17.4 µM | [9] 16.1 µM | [10] 15.2 µM | [20] 6 µM | [11] 47.4 µM | [12] 20 µM | [13] 12 µM | [14] 14.6 µM | [15] 76.2 µM | [16] 12.6 µM | [17] 16.9 µM

Cc1ccc(S(=O)(=O)n2cc(-c3cnc(N)c(Br)n3)c3ccccc32)cc1
1.21 µM: [4]
inactive: [1] 2.33 µM | [2] 3.32 µM | [3] 1.31 µM | [5] 3.94 µM | [19] 2.94 µM | [6] 31.2 µM | [8] 5.18 µM | [9] 4.06 µM | [10] 2.92 µM | [20] 1.78 µM | [11] 1.95 µM | [12] 1.15 µM | [13] 6.27 µM | [14] 2.91 µM | [15] 4.26 µM | [17] 4.18 µM
active: [18] 0.372 µM | [16] 0.764 µM

CCCCC1(NN=C2CCCCC2)C(=O)N(c2ccccc2)N(c2ccccc2)C1=O
> 100 µM: [4]
inactive: [1] > 100 µM | [2] > 100 µM | [3] > 100 µM | [18] 18.1 µM | [7] 83 µM | [8] > 100 µM | [9] > 100 µM | [10] > 100 µM | [20] 62.1 µM | [11] > 100 µM | [12] > 100 µM | [13] > 100 µM | [14] > 100 µM | [15] > 100 µM | [16] 17.3 µM | [17] > 100 µM

COC(=O)[C@@H]1CC(C(CN)c2cn(C(=O)OC(C)(C)C)c3ccccc23)C(=O)N1C(=O)OC(C)(C)C (stereo partly specified)
28.1 µM: [4]
inactive: [1] 31.3 µM | [2] 29.2 µM | [3] 44.2 µM | [18] 21.8 µM | [19] 14.8 µM | [6] 29.9 µM | [7] 22.5 µM | [8] 20.9 µM | [9] 21.7 µM | [10] 18.4 µM | [20] 10.6 µM | [11] 21.6 µM | [12] 13.8 µM | [13] 17.3 µM | [14] 17.2 µM | [16] 23.1 µM | [17] 32.4 µM

Cc1cn([C@H]2C[C@@H]3[C@@H](COC(CCl)N3O)O2)c(=O)[nH]c1=O (stereo partly specified)
> 100 µM: [4]
inactive: [1] > 100 µM | [2] > 100 µM | [3] > 100 µM | [18] > 100 µM | [19] > 100 µM | [6] > 100 µM | [7] > 100 µM | [8] > 100 µM | [9] > 100 µM | [10] > 100 µM | [20] > 100 µM | [11] > 100 µM | [12] > 100 µM | [13] > 100 µM | [14] > 100 µM | [15] > 100 µM | [16] > 100 µM | [17] > 100 µM

Cc1cccc(NC(Nc2cccc(C)c2)=C(C(Cl)=C(Cl)Cl)[N+](=O)[O-])c1
13.1 µM: [4]
inactive: [1] 14.7 µM | [2] 14.7 µM | [3] 18.7 µM | [19] 8.99 µM | [6] 3.35 µM | [7] 6.52 µM | [8] 22.8 µM | [9] 12.3 µM | [10] 19.9 µM | [20] 8.11 µM | [11] 14 µM | [12] 10.1 µM | [13] 17.3 µM | [14] 5.98 µM | [15] 22.3 µM | [16] 3.81 µM | [17] 11.8 µM

C#CC(C)(C)Oc1cc(OC)c2c(=O)c3ccccc3n(C)c2c1
10.9 µM: [4]
inactive: [1] 7.46 µM | [3] 12.4 µM | [18] 10.9 µM | [6] 16.6 µM | [8] 7.8 µM | [9] 15.4 µM | [10] 13.8 µM | [20] 4.4 µM | [11] 19.5 µM | [12] 26.1 µM | [13] 16.2 µM | [14] 11.1 µM | [15] 23 µM | [16] 2.83 µM | [17] 3.87 µM

O=C(Cc1ccccc1)N[C@@H]1COC(=O)[C@@H]2CCCN2C(=O)[C@@H]2CCCN2C1=O (PhAc-[dS]-Pro-Pro; ester 1-C)
> 100 µM: [4]
inactive: [1] > 100 µM | [2] > 100 µM | [3] > 100 µM | [18] > 100 µM | [5] > 100 µM | [19] > 100 µM | [8] > 100 µM | [9] > 100 µM | [10] > 100 µM | [11] > 100 µM | [12] > 100 µM | [13] > 100 µM | [14] > 100 µM | [15] > 100 µM | [16] > 100 µM

Source: ChEMBL document CHEMBL1201862, “PubChem BioAssay data set” (2004)
